Among the data in US8710043B2, “TRPM8 antagonists and their use in treatments” (Amgen Inc., priority 2011, dated 2014) are IC50 values, retold here.

T1 sequence (Q7Z2W7 whole entry): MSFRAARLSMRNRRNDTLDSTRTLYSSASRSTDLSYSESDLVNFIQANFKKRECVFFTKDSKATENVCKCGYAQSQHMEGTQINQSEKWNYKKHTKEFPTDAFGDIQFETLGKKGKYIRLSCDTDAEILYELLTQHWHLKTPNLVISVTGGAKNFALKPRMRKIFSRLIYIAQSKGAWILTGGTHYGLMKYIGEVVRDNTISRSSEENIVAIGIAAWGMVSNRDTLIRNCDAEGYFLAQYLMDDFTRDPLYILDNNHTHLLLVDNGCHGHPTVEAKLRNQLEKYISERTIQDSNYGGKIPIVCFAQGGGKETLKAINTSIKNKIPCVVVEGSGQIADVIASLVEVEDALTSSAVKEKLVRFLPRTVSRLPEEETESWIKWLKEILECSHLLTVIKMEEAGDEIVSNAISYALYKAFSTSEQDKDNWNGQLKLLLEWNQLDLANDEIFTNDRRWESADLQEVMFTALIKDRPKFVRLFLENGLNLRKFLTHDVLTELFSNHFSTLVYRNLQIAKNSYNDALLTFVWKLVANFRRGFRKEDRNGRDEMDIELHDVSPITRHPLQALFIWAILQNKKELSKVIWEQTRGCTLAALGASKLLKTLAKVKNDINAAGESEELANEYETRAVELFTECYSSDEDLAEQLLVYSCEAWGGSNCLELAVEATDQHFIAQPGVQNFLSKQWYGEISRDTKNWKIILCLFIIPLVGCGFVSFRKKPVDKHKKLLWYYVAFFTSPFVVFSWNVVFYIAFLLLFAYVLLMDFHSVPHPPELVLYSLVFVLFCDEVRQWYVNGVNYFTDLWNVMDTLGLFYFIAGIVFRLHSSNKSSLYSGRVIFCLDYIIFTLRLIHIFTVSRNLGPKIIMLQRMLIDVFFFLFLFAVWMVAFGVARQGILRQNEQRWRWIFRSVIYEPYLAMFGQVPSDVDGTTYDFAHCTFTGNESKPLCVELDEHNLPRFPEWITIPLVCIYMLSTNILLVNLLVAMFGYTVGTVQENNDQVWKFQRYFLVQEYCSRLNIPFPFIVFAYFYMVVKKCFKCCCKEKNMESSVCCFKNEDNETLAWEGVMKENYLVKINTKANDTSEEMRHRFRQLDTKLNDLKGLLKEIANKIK

The experiment addresses T1, human TRPM8 (Homo sapiens, UniProt Q7Z2W7).
T1 construct: expressed in transfected cells; host or cells: Chinese hamster ovary (CHO) cells, T-REx tetracycline-inducible system, co-transfected with aequorin
Put plainly: Luminescence readout assay for measuring intracellular calcium, icilin activation. Particulars: CHO cells expressing human TRPM8, aequorin luminescence, 1 μM icilin activation; read-out: hTRPM8 IC50. Type of experiment: cell-based. In a few lines: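 The read-out was luminescence reporting intracellular calcium, recorded by a CCD-based luminometer. Compounds were preincubated for 2.5 min before agonist challenge with 1 μM icilin. Human TRPM8 was expressed in a stable T-REx CHO line, induced with 0.5 μg/mL tetracycline the day before.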
`O=C1Cc2cc(C(=O)N[C@@H](c3ccc(C(F)(F)F)cc3)c3ncccc3C(F)(F)F)ccc2N1` [Example 56, (S)-2-oxo-N-((4-(trifluoromethyl)phenyl)(3-(trifluoromethyl)pyridin-2-yl)methyl)indoline-5-carboxamide]: the IC50 worked out at 9.2 nM. Turning to `O=C(N[C@@H](c1cccc(Cl)c1)c1ncccc1C(F)(F)F)c1ccc2cccnc2c1` [Example 13, (S)-N-((3-chlorophenyl)(3-(trifluoromethyl)pyridin-2-yl)methyl)quinoline-7-carboxamide], the IC50 came out at 83.3 nM.

For the compound `CC(C)(C)OC(=O)N1CCCC(C(=O)N[C@@H](c2ccc(C(F)(F)F)cc2)c2ncccc2C(F)(F)F)C1` (stereo partly drawn) [Example 142, tert-butyl 3-(((S)-(4-(trifluoromethyl)phenyl)(3-(trifluoromethyl)pyridin-2-yl)methyl)carbamoyl)piperidine-1-carboxylate], the IC50 is 144 nM.

Consider `Cc1ccc(C(NC(=O)c2ccc(=O)[nH]c2)c2ccc(OC(F)(F)F)c(F)c2)nc1` (centres unmarked) [Example 424, N-((3-fluoro-4-(trifluoromethoxy)phenyl)(5-methylpyridin-2-yl)methyl)-6-oxo-1,6-dihydropyridine-3-carboxamide], for which the IC50 was 92 nM. For `Nc1cccnc1C(=O)N[C@@H](c1ccc(C(F)(F)F)cc1)c1ncccc1C(F)(F)F` [Example 144, (S)-3-amino-N-((4-(trifluoromethyl)phenyl)(3-(trifluoromethyl)pyridin-2-yl)methyl)picolinamide], the IC50 was 200 nM.

As for `O=C(NC(c1ccc(C(F)(F)F)cc1)c1ncccc1F)c1cccc(F)c1` (centres unmarked) [Example 209, 3-fluoro-N-((3-fluoropyridin-2-yl)(4-(trifluoromethyl)phenyl)methyl)benzamide], the half-inhibitory concentration (IC50) came out at 105 nM. Regarding `O=C(N[C@@H](c1ccc(C(F)(F)F)cc1)c1cnccc1C(F)(F)F)c1ccc2ncccc2c1` [Example 260, (S)-N-((4-(trifluoromethyl)phenyl)(4-(trifluoromethyl)pyridin-3-yl)methyl)quinoline-6-carboxamide bis (2,2,2-trifluoroacetate)], the IC50 was found to be 311 nM.

On to `O=C(NC(c1ccc(C(F)(F)F)cc1)c1ncccc1F)c1ccccc1` (centres unmarked) [Example 193, N-((3-fluoropyridin-2-yl)(4-(trifluoromethyl)phenyl)methyl)benzamide], for which the IC50 worked out at 34.8 nM. Consider `Cc1ccc(F)c([C@@H](NC(=O)c2ccc(=O)[nH]c2)c2ccc(C(F)(F)F)cc2)n1` [Example 410, (S)-N-((3-fluoro-6-methylpyridin-2-yl)(4-(trifluoromethyl)phenyl)methyl)-6-oxo-1,6-dihydropyridine-3-carboxamide], for which the IC50 was 71.8 nM. As for `COc1ccnc(C(NC(=O)c2ccc(=O)[nH]c2)c2ccc(OC(F)(F)F)c(F)c2)c1` (centres unmarked) [Example 422, N-((3-fluoro-4-(trifluoromethoxy)phenyl)(4-methoxypyridin-2-yl)methyl)-6-oxo-1,6-dihydropyridine-3-carboxamide], the IC50 was 841 nM.

Take `O=C(NC(c1ccc(C(F)(F)F)cc1)c1ncccc1F)c1ccc2nccnc2c1` (centres unmarked) [Example 202, N-((3-fluoropyridin-2-yl)(4-(trifluoromethyl)phenyl)methyl)quinoxaline-6-carboxamide]: the IC50 was 35.2 nM.

`Cc1cccnc1[C@@H](NC(=O)c1ccc2oc(=O)[nH]c2c1)c1ccc(OC(F)(F)F)c(F)c1` [Example 358, (S)-N-((3-fluoro-4-(trifluoromethoxy)phenyl)(3-methylpyridin-2-yl)methyl)-2-oxo-2,3-dihydrobenzo[d]oxazole-5-carboxamide]: the IC50 came to 14.1 nM. Consider `O=C(Cc1ccccc1)N[C@@H](c1ccc(C(F)(F)F)cc1)c1ncccc1C(F)(F)F` [Example 218, (S)-2-phenyl-N-((4-(trifluoromethyl)phenyl)(3-(trifluoromethyl)pyridin-2-yl)methyl)acetamide], for which the IC50 came to 230 nM.

As to `O=C(N[C@@H](c1ccc(C(F)(F)F)cc1)c1ncccc1F)c1ccc(=O)n(C(F)F)c1` [Example 396, (S)-1-(difluoromethyl)-N-((3-fluoropyridin-2-yl)(4-(trifluoromethyl)phenyl)methyl)-6-oxo-1,6-dihydropyridine-3-carboxamide], the IC50 turned out to be 20.1 nM. With `CC(C)(O)Cn1cc(C(=O)N[C@@H](c2ccc(C(F)(F)F)cc2)c2ncccc2F)ccc1=O` [Example 303, (S)-N-((3-fluoropyridin-2-yl)(4-(trifluoromethyl)phenyl)methyl)-1-(2-hydroxy-2-methylpropyl)-6-oxo-1,6-dihydropyridine-3-carboxamide] the figure was 143 nM; with `O=C(N[C@@H](c1ccc(C(F)(F)F)cc1)c1ncccc1C(F)(F)F)c1cccc(Cl)c1` [Example 208, (S)-3-chloro-N-((4-(trifluoromethyl)phenyl)(3-(trifluoromethyl)pyridin-2-yl)methyl)benzamide], 41.7 nM; with `O=C(N[C@@H](c1ccc(C(F)(F)F)cc1)c1ncccc1C(F)(F)F)c1cncnc1O` [Example 61, (S)-4-hydroxy-N-((4-(trifluoromethyl)phenyl)(3-(trifluoromethyl)pyridin-2-yl)methyl)pyrimidine-5-carboxamide], 312 nM. On to `O=C(N[C@@H](c1ccc(OC(F)(F)F)c(F)c1)c1ncccc1F)c1cc2oc(=O)[nH]c2cn1` [Example 438, (S)—N-((3-Fluoro-4-(trifluoromethoxy)phenyl)(3-fluoropyridin-2-yl)methyl)-2-oxo-2,3-dihydrooxazolo[4,5-c]pyridine-6-carboxamide], for which the IC50 is 11.4 nM. As for `CC#Cc1cccnc1[C@@H](NC(=O)c1ccc(OC)cc1)c1ccc(C(F)(F)F)cc1` [Example 95, (S)-4-methoxy-N-((3-(prop-1-yn-1-yl)pyridin-2-yl)(4-(trifluoromethyl)phenyl)methyl)benzamide 2,2,2-trifluoroacetate], the IC50 was determined as 57.2 nM. For the compound `Cn1ccc(C(=O)N[C@@H](c2ccc(C(F)(F)F)cc2)c2ncccc2C(F)(F)F)cc1=O` [Example 49, (S)-1-methyl-2-oxo-N-((4-(trifluoromethyl)phenyl)(3-(trifluoromethyl)pyridin-2-yl)methyl)-1,2-dihydropyridine-4-carboxamide], the IC50 was 127 nM.

Regarding `O=C(N[C@@H](c1ccc(C(F)(F)F)cc1)c1ncccc1F)c1ccc2[nH]cnc2c1` [Example 392, (S)-N-((3-fluoropyridin-2-yl)(4-(trifluoromethyl)phenyl)methyl)-1H-benzo[d]imidazole-5-carboxamide], the IC50 amounted to 7.6 nM. On to `O=C(N[C@@H](c1ccc(OC(F)(F)F)cc1)c1ncccc1F)c1ccn2ccnc2c1` [Example 88, (S)-N-((3-fluoropyridin-2-yl)(4-(trifluoromethoxy)phenyl)methyl)imidazo[1,2-a]pyridine-7-carboxamide], for which the IC50 amounted to 12.1 nM. With `O=C(N[C@@H](C#Cc1ccccc1)c1ncccc1C(F)(F)F)c1ccc2cccnc2c1` [Example 261, (S)-N-(3-phenyl-1-(3-(trifluoromethyl)pyridin-2-yl)prop-2-yn-1-yl)quinoline-7-carboxamide], the IC50 came out at 375 nM. In the case of `COC(C)(C)C(=O)N[C@@H](c1ccc(C(F)(F)F)cc1)c1ncccc1C(F)(F)F` [Example 240, (S)-2-methoxy-2-methyl-N-((4-(trifluoromethyl)phenyl)(3-(trifluoromethyl)pyridin-2-yl)methyl)propanamide], the concentration for half-maximal inhibition (IC50) came out at 81 nM.

Turning to `Cn1cnc2ccc(C(=O)N[C@@H](c3ccc(C(F)(F)F)cc3)c3ncccc3F)cc21` [Example 395, (S)-N-((3-fluoropyridin-2-yl)(4-(trifluoromethyl)phenyl)methyl)-1-methyl-1H-benzo[d]imidazole-6-carboxamide], the IC50 was 6.6 nM. Take `O=C(N[C@@H](c1ccc(OC(F)(F)F)cc1)c1ncccc1F)c1ccc2cccnc2c1` [Example 2, (S)-N-((3-fluoropyridin-2-yl)(4-(trifluoromethoxy)phenyl)methyl)quinoline-7-carboxamide]: the IC50 was determined as 17 nM. `N#Cc1cc(C(=O)N[C@@H](c2ccc(C(F)(F)F)cc2)c2ncccc2F)c[nH]c1=O` [Example 277, (S)-5-Cyano-N-((3-fluoropyridin-2-yl)(4-(trifluoromethyl)-phenyl)methyl)-6-oxo-1,6-dihydropyridine-3-carboxamide]: the IC50 stood at 188 nM. The same measure for `Cc1cc(C(=O)N[C@@H](c2ccc(C(F)(F)F)cc2)c2ncccc2F)ccn1` [Example 53, (S)-N-((3-fluoropyridin-2-yl)(4-(trifluoromethyl)phenyl)methyl)-2-methylisonicotinamide]: 45.5 nM; for `Cn1cnc2cc(C(=O)N[C@@H](c3ccc(C(F)(F)F)cc3)c3ncccc3F)ccc21` [Example 394, (S)-N-((3-fluoropyridin-2-yl)(4-(trifluoromethyl)phenyl)methyl)-1-methyl-1H-benzo[d]imidazole-5-carboxamide]: 35.4 nM; for `COc1ncc(C(=O)N[C@@H](c2ccc(C(F)(F)F)cc2)c2ncccc2F)cn1` [Example 264, (S)—N-((3-Fluoropyridin-2-yl)(4-(trifluoromethyl)phenyl)methyl)-2-methoxypyrimidine-5-carboxamide]: 253 nM. In the case of `O=C(N[C@@H](c1ccc(C(F)(F)F)cc1)c1ncccc1Cl)c1ccc(=O)[nH]c1` [Example 248, (S)-N-((3-chloropyridin-2-yl)(4-(trifluoromethyl)phenyl)methyl)-6-oxo-1,6-dihydropyridine-3-carboxamide 2,2,2-trifluoroacetate], the IC50 came to 11.9 nM. For the compound `O=C(N[C@@H](c1ccc(C(F)(F)F)cc1)c1ncccc1C(F)(F)F)C1CCC(O)CC1` (stereo partly drawn) [Example 242, (S)-4-hydroxy-N-((4-(trifluoromethyl)phenyl)(3-(trifluoromethyl)pyridin-2-yl)methyl)cyclohexanecarboxamide], the IC50 was 1030 nM.
